# From PubChem BioAssay (NCI)
# Where “and” joins values, the source holds several entries; their conditions need not be identical. Identical values can stand only once.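 Protocol summary: plate cells (96-well), add compound at 5 concentrations, incubate 48 h, interpolate endpoints linearly. Abbreviation: GI50, concentration required for 50% inhibition of growth. TGI: total growth inhibition.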
# Key:
# Assay in all cases: NCI-60 cell line screen, 48 h
# A498 renal = system: A498 renal
# HOP-62 NSCLC = system: HOP-62 NSCLC
# MDA-MB-231 breast = system: MDA-MB-231 breast
# NCI-H522 lung = system: NCI-H522 lung
# RXF 393 renal = system: RXF 393 renal
# SF-268 CNS = system: SF-268 CNS
# SK-OV-3 ovarian = system: SK-OV-3 ovarian
# SW-620 colon = system: SW-620 colon
# TK-10 renal = system: TK-10 renal
# UACC-257 melanoma = system: UACC-257 melanoma
SMILES,GI50 (A498 renal),TGI (A498 renal),GI50 (HOP-62 NSCLC),TGI (HOP-62 NSCLC),GI50 (MDA-MB-231 breast),TGI (MDA-MB-231 breast),GI50 (NCI-H522 lung),TGI (NCI-H522 lung),GI50 (RXF 393 renal),TGI (RXF 393 renal),GI50 (SF-268 CNS),TGI (SF-268 CNS),GI50 (SK-OV-3 ovarian),TGI (SK-OV-3 ovarian),GI50 (SW-620 colon),TGI (SW-620 colon),GI50 (TK-10 renal),TGI (TK-10 renal),GI50 (UACC-257 melanoma),TGI (UACC-257 melanoma)
O=C(CC1(O)C(=O)Nc2c(Cl)ccc(Cl)c21)c1ccc(C2CC2)cc1 (stereo not drawn),0.183 µM,0.754 µM,1.28 µM,19.4 µM,2.64 µM,21.8 µM,0.43 µM,1.9 µM,0.632 µM,2.64 µM,2.98 µM,23.4 µM,1.33 µM,17 µM,0.29 µM,13 µM,11.9 µM,29.1 µM,2.48 µM,24.7 µM
CC(=O)N[C@@H](Cc1ccc(OP(=O)(O)O)cc1)C(=O)N[C@H]1CCC(=O)N2CCC[C@@H](C(=O)NCc3ccc(O)cc3)N2C1=O,> 25 µM,> 25 µM,> 25 µM,> 25 µM,> 25 µM,> 25 µM,> 25 µM,> 25 µM,> 25 µM,> 25 µM,> 25 µM,> 25 µM,> 25 µM,> 25 µM,> 25 µM,> 25 µM,> 25 µM,> 25 µM,> 25 µM,> 25 µM
COc1cc(C2C(C#N)=C(N)Oc3cc4c(cc32)OCO4)cc2c1OCO2 (stereo not drawn),0.103 µM,–,0.393 µM,> 100 µM,0.774 µM,> 100 µM,0.0926 µM,2.72 µM,0.146 µM,0.546 µM,0.963 µM,97.3 µM,0.439 µM,–,0.276 µM,> 100 µM,2.36 µM,> 79.8 µM,0.9 µM,> 100 µM
COc1cc(/C=C/C(=O)c2ccc(Nc3nc(Nc4ccccc4)nc(Nc4ccc(Cl)cc4)n3)cc2)cc(OC)c1OC,28.2 µM,> 32.5 µM,> 32.5 µM,> 32.5 µM,18.5 µM,> 32.5 µM,13.9 µM,> 32.5 µM,5.09 µM,25.3 µM,23.8 µM,> 32.5 µM,> 32.5 µM,> 32.5 µM,8.46 µM,> 32.5 µM,19.1 µM,> 32.5 µM,> 32.5 µM,> 32.5 µM
CC(C)N(C[C@H]1O[C@@H](n2cnc3c(N)ncnc32)[C@H](O)[C@@H]1O)C1CC(CCc2nc3ccc(C(C)(C)C)cc3[nH]2)C1 (stereo partly drawn),29.6 µM,> 100 µM,> 100 µM,> 100 µM,69.8 µM,> 100 µM,> 75.9 µM,> 100 µM,21.2 µM,> 100 µM,> 100 µM,> 100 µM,> 100 µM,> 100 µM,> 100 µM,> 100 µM,> 100 µM,> 100 µM,> 58.7 µM,> 100 µM
CC(C)CNc1nc(N=[N+]=[N-])nc(NCC(C)C)n1,> 10 µM,> 10 µM,> 10 µM,> 10 µM,> 10 µM,> 10 µM,> 10 µM,> 10 µM,> 10 µM,> 10 µM,> 10 µM,> 10 µM,> 10 µM,> 10 µM,> 10 µM,> 10 µM,> 10 µM,> 10 µM,> 10 µM,> 10 µM
O=C(Nc1ccc(S(=O)(=O)NC2CCCCCC2)cc1)C(c1ccccc1)S(=O)(=O)c1ccc(F)cc1 (stereo not drawn),0.87 µM,2.08 µM,0.97 µM,3.86 µM,0.35 µM,1.94 µM,0.318 µM,2.94 µM,0.217 µM,0.562 µM,0.933 µM,6.11 µM,0.335 µM,4.03 µM,0.084 µM,1.98 µM,0.331 µM,3.66 µM,0.621 µM,2.98 µM
CC[C@@]1(OC(=O)CN)C(=O)OCc2c1cc1n(c2=O)Cc2cc3c(N)c4c(cc3nc2-1)OCO4,0.00226 µM,0.0661 µM,< 0.0001 µM,0.205 µM and 0.25 µM,0.0873 µM and 0.3 µM,> 100 µM,0.00115 µM,0.146 µM,0.00466 µM,0.158 µM,< 0.0001 µM,0.125 µM and 0.183 µM,0.00015 µM,0.148 µM,0.00243 µM,> 100 µM,0.0167 µM and 0.104 µM,> 100 µM,0.0158 µM,0.228 µM
c1cnc2c(c1)Nc1cnncc1S2,–,> 100 µM,–,> 100 µM,–,> 100 µM,–,> 100 µM,–,> 100 µM,–,> 100 µM,–,> 100 µM,–,> 100 µM,–,> 100 µM,–,> 100 µM
COc1cnc2c(c1)C(=O)c1c-2n(CCCN2CCN(CCO)CC2)c(=O)c2cc([N+](=O)[O-])ccc12,0.794 µM,19.7 µM,2.76 µM,19.6 µM,1.81 µM,3.74 µM,0.499 µM,2.89 µM,4.68 µM,20.4 µM,1.07 µM,4.92 µM,4.99 µM,20.2 µM,0.326 µM,2.07 µM,2.77 µM,11.9 µM,2.26 µM,6.87 µM
O=[N+]([O-])c1ccc(-c2ccccc2)c([As](=O)(O)O)c1,16.5 µM,67 µM,3.11 µM,18 µM,10 µM,37.4 µM,6.92 µM,21.3 µM,10.7 µM,23.2 µM,9.85 µM,39.2 µM,24.2 µM,91.5 µM,7.82 µM,24.4 µM,17.5 µM,38.5 µM,21.7 µM,> 100 µM
Cc1c(N2C(=O)/C(=C\c3ccc(N(C)C)cc3)N=C2c2ccccc2)c(=O)n(-c2ccccc2)n1C,> 64.3 µM,> 100 µM,> 100 µM,> 100 µM,> 82.9 µM,> 100 µM,67.8 µM,> 100 µM,> 100 µM,> 100 µM,> 76.9 µM,> 100 µM,> 100 µM,> 100 µM,> 100 µM,> 100 µM,> 100 µM,> 100 µM,> 100 µM,> 100 µM
